We go through 8 compounds from patent US11447512B2 (Shenzhen TargetRx, Inc., priority 2017, dated 2022).

Counter-ions that a name gives are not always drawn. Like-named read-outs stand apart in the source and are kept apart here. Some results are limits rather than exact numbers.

In one series the test system is HIV-1. Description: microbe, parasite or virus in culture. Particulars: Human immunodeficiency virus 1, MT4, 120 h, read-out: HIV activity and cytotoxicity data EC50 (nM). Here is the method: The data was analyzed by GraphPad Prism software, and the curve was fitted and EC50 and CC50 values were calculated. EC50 refers to the effective concentration that inhibits 50% virus production, 50% virus infectivity, or 50% virus-induced cellular effects. CC50 refers to the inhibitory concentration that reduces the cell growth or viability of uninfected cells by 50%.
Compound treatment: the test compounds and the reference compounds were 2-fold diluted with DMSO and added to the cell culture plate. The test compounds and the reference compounds were tested at 8 concentrations in duplicate.
Viral infection and cell treatment: HIV-1 and MT-4 cells were co-incubated at 37° C., in an incubator with 5% CO2 for 1 h. The infected cells were then seeded in a cell culture plate at a certain density. The final concentration of DMSO in the cell culture medium was 0.5%. The cells were incubated at 37° C., in an incubator with 5% CO2 for 5 days. The cells tested in the cytotoxicity assay were uninfected MT-4 cells, and other test conditions were with the same as that of the antiviral activity assay.
The activity assay of the cell: the cell viability was tested by using cell viability assay Reagent CellTiter-glo (Promega). The raw data was used for calculating the anti-HIV-1 activity and cytotoxicity of the Compounds.

Series [1] can be described thus: Cytotoxicity in uninfected MT-4 cells (CellTiter-glo). It is filed as cell-based. Particulars: human, read-out: HIV activity and cytotoxicity data CC50; for CC50: 5 days.
Protocol: The data was analyzed by GraphPad Prism software, and the curve was fitted and EC50 and CC50 values were calculated. […] CC50 refers to the inhibitory concentration that reduces the cell growth or viability of uninfected cells by 50%.
A further series deals with HBV. Description: In vitro anti-HBV activity in HepG2.2.15 cells (HBV DNA by quantitative PCR). Particulars: Hepatitis B virus. The format is cell-based. As for the experimental part:
Experimental method: anti-HBV activity of compounds was detected by Bright-Glo (Promega) luciferase.
Anti-cell viability assay: in vitro anti-hepatitis b virus activity of Example compounds was tested in HepG2.2.15 cells with TDF as a positive control compound. Cells were seeded into a 96-well plate on the first day; the compounds were added to treat the cells on the next day; and a new culture medium containing the compounds was replaced on the fifth day. On the eighth day, the supernatant was collected for DNA extraction. The content of HBV DNA was detected by quantitative PCR. Both test compound and TDF were subjected to a 3-fold serial dilution to get 8 concentration points in duplicate. The final concentration of DMSO in the culture medium was 0.5%. The formula for calculating the percentage of inhibition is as follows: Inhibition rate=(1−copy number of HBV in sample/copy number of HBV in DMSO control group)×100%
EC50 is analyzed by Graphpad Prism software (four parameter logistic equations), wherein I represents EC50≤50 nM, II represents 50 nM≤EC50≤200 nM, III represents 200 nM<EC50≤500 nM, IV represents EC50>500 nM (as shown in Table 1 below).

Series [2] in a line: Cytotoxicity experiment of the anti-HBV test (Cell-titer Blue). It is filed as cell-based. Particulars: human, six days after treatment.
Series [3] is described as follows: Human liver microsome metabolic stability. Particulars: pH 7.4, 1 μM compound, 0.5 mg/mL protein, NADPH; for microsomal CLint / microsomal CLint at 1 μM: read-out: Human liver microsome experiment CLint; for half-life / half-life at 1 μM: read-out: Human liver microsome experiment t1/2. It is filed as in vitro ADME. Here is the method: (§1) Microsomal experiments: human liver microsomes: 0.5 mg/mL, Xenotech; rat liver microsomes: 0.5 mg/mL, Xenotech; coenzyme (NADPH/NADH): 1 mM, Sigma Life Science; magnesium chloride: 5 mM, 100 mM phosphate buffer (pH 7.4).
(§2) Preparation of stock solution: powder of Example compounds were precisely weighed and dissolved in DMSO to 5 mM.
(§3) Preparation of phosphate buffer (100 mm, pH7.4): 0.5M pre-formulated potassium dihydrogen phosphate (150 ml) and 0.5M potassium hydrogen phosphate (700 ml) were mixed well. The pH of the mixture was then adjusted to 7.4 with 0.5M potassium hydrogen phosphate solution. The resulting solution was 5-fold diluted with ultrapure water before use, and magnesium chloride was added to the solution, affording a phosphate buffer (100 mm), containing potassium phosphate (100 mM), magnesium chloride (3.3 mM), pH 7.4.
(§4) A NADPH regeneration system solution (containing 6.5 mM NADP, 16.5 mM G-6-P, 3 U/mL G-6-P D, 3.3 mM magnesium chloride) was formulated, which was placed on wet ice before use.
(§5) Preparation of stop solution: 50 ng/mL of propranolol hydrochloride and 200 ng/mL of tolbutamide (internal standard) in acetonitrile. 25057.5 μL of phosphate buffer (pH 7.4) was placed to a 50 mL centrifuge tube, and 812.5 μL human liver microsomes were added to the tube, which were mixed well to give a protein concentration of 0.625 mg/mL liver microsomes diluent. 25057.5 μL of phosphate buffer (pH 7.4) was placed to a 50 ml centrifuge tube, and 812.5 μL SD rat liver microsomes were added to the tube, which were mixed well to give a protein concentration of 0.625 mg/mL liver microsomes diluent.
(§6) Incubation of the sample: the stock solution of the corresponding compounds was diluted to 0.25 mM with 70% acetonitrile in water as a working solution for later use. 398 μL of human liver microsomes dilution or rat liver microsomes dilution was added into 96-well incubation plate (N=2), and 2 μL of 0.25 mM working solution was added to the plate, which were mixed well.
(§7) Metabolic stability assay: 300 μL of pre-chilled stop solution was added to each well of a 96-well deep-well plate and the plate was placed on ice as a stop plate. The 96-well incubation plate and NADPH regeneration system were placed in a 37° C. water bath, shaked at 100 rpm, pre-incubated for 5min. 80 μL of incubation solution was taken from each well of the incubation plate and was added to the stop plate, which were mixed well. 20 μL of NADPH regeneration system solution was supplemented into the mixture to form the 0 min sample. Then 80 μL of NADPH regeneration system solution was added to each well of the incubation plate to initiate the reaction and start timing. The reaction concentration of the corresponding compound was 1 μM, and the protein concentration was 0.5 mg/mL. At 10, 30, and 90 min, 100 μL of the reaction solution was added to the stop plate and vortexed for 3 min to quench the reaction. The stop plate was centrifuged at 5000×g at 4° C. for 10 min. 100 μL of supernatant was taken into a 96-well plate containing 100 μL of distilled water, which were mixed well. LC-MS/MS was used for sample analysis.
(§8) Data analysis: The peak area of the corresponding compounds and internal standard was detected by LC-MS/MS system, and the peak area ratio of compounds to internal standard was calculated. The slope was measured by plotting the natural log of the percentage of the remaining amount of the compounds versus time, and t1/2 and CLint were calculated according to the following formula, where V/M is equal to 1/protein concentration.
(Liver microsomes are a subcellular fraction often used to study metabolism.)

Series [4] can be described thus: Rat liver microsome metabolic stability. It is filed as in vitro ADME. Particulars: SD, pH 7.4, 1 μM compound, 0.5 mg/mL protein, NADPH; for microsomal CLint / microsomal CLint at 1 μM: read-out: Rat liver microsome experiment CLint; for half-life / half-life at 1 μM: read-out: Rat liver microsome experiment t1/2. Here is the method:
as §1, §2, §3, §4, §5, §6, §7, §8

For series [5] the following is noted: relative to TDF; cited from earlier work.
For series [6] the following is noted: relative to TDF; cited from earlier work. The source holds these as a separate data set.
The mark [7] stands for this setting: HepG2.2.15 cells, HBV DNA in supernatant on the eighth day, read-out: HBV activity and cytotoxicity data EC50.

`CCCCCCCCCCCCCCCCOCCCOP(O)(=S)CO[C@H](C)Cn1cnc2c(N)ncnc21` (stereo partly shown) [Compound T-1]: the EC50 (commonly the concentration giving half of the maximal effect) is 5 to 20 nM in the series with HIV-1 and below 50 nM in the series on HBV (setting [7]). In addition, the 50% cytotoxic concentration (CC50) (usually the concentration that lowers cell viability or growth by half) lay in the range of 3000 to 10000 nM in series [1] and 7000 to 50000 nM in series [2]. Moreover, the results for the microsomal CLint in series [3] (microsomes) and in series [4] (microsomes) were 45.6 µL/min/mg and 5.6 µL/min/mg, respectively. Also, the half-life in series [3] (microsomes) is 3.04 min; in series [4] (microsomes), 249 min.
As for `CC(C)OC(=O)[C@H](C)NP(=S)(CO[C@H](C)Cn1cnc2c(N)ncnc21)Oc1ccccc1` (stereo partly drawn) [Compound T-3, 9-{(R)-2-[({[(S)-1-(isopropoxycarbonyl)ethyl]amino}phenoxythiophosphoryl)methoxy]lpropyl}adenine], the EC50 with HIV-1 lay within 5 to 20 nM; with HBV (HepG2.2.15, read-out: HBV activity and cytotoxicity data EC50 (nM)) it was 50 to 200 nM. For the same compound, the CC50 at 5 days in series [1] lay within 3000 to 10000 nM. Further, the 50% cytotoxic concentration (CC50) at 6 days in series [2] was above 50000 nM. The microsomal CLint at 1 μM in series [3] (microsomes) was 285 µL/min/mg; in series [4] (microsomes), 82.5 µL/min/mg. Besides, the half-life at 1 μM in series [3] (microsomes) amounted to 4.9 min; in series [4] (microsomes) it was 16.8 min.
Turning to `CCCCCCCCCCCCCCCCOCCCOP(=S)(CO[C@H](C)Cn1cnc2c(N)ncnc21)OCOC(=O)OC(C)C` (stereo partly drawn) [Compound T-4, (R)-9-{2-[(hexadecyloxypropyl)(isopropylcarbonatemethyl)thiophosphorylmethoxy]propyl}adenine], the EC50 in the series on HIV-1 and with HBV (setting [7]) was above 500 nM each time. Moreover, the CC50 in series [1] and in series [2] was above 50000 nM each time. The microsomal CLint was determined as 116 µL/min/mg in series [3] (microsomes) and 68.5 µL/min/mg in series [4] (microsomes). Besides, the half-life came to 11.9 min in series [3] (microsomes) and 20.2 min in series [4] (microsomes).
Take `CCCCCCCCCCCCCCCCOCCCOP(=O)(CO[C@H](C)Cn1cnc2c(N)ncnc21)OCOC(=O)SC(C)C` (stereo partly drawn) [Compound T-5, (R)-9-{2-[(hexadecyloxypropyl)(isopropylsulfanylcarbonyloxymethyl)phosphorylmethoxy]propyl}adenine]: the figures for the 50% effective concentration (EC50) in the series with HIV-1 and with HBV (setting [7]) were 5 to 20 nM and 50 to 200 nM, respectively. In addition, the CC50 at 5 days in series [1] was above 50000 nM. Also, the cytotoxic concentration (CC50) at 6 days in series [2] (HepG2.2.15 cells) is above 50000 nM. Besides, the microsomal CLint at 1 μM in series [3] (human liver microsomes) turned out to be 42.7 µL/min/mg; in series [4] (rat liver microsomes), 56.6 µL/min/mg. The results for the half-life at 1 μM in series [3] (human liver microsomes) and in series [4] (rat liver microsomes) were 32.5 min and 24.5 min, respectively.
As for `CCCCCCCCCCCCCCCCOCCCOP(=S)(CO[C@H](C)Cn1cnc2c(N)ncnc21)N[C@@H](C)C(=O)OC(C)C` (stereo partly shown) [Compound T-6], the half-maximal effective concentration (EC50) in the series with HIV-1 is above 500 nM; with HBV (setting [7]), 200 to 500 nM. Besides, the 50% cytotoxic concentration (CC50) in series [1] was in the range of 3000 to 10000 nM; in series [2], 7000 to 50000 nM. The values for the microsomal CLint in series [3] (microsomes) and in series [4] (microsomes) were 12.9 µL/min/mg and 9.9 µL/min/mg, respectively. Also, the half-life was found to be 107 min in series [3] (microsomes) and 140 min in series [4] (microsomes).
Turning to `CCCCCCCCCCCCCCCCOCCCOP(=O)(CO[C@H](C)Cn1cnc2c(N)ncnc21)N[C@@H](C)C(=O)SC(C)C` (stereo partly shown) [Compound T-7], the concentration giving a half-maximal response (EC50) is below 5 nM in the series with HIV-1 and 50 to 200 nM in the series on HBV (setting [7]). Besides, in series [1], the cytotoxic concentration (CC50) at 5 days fell in the range of 3000 to 10000 nM. The compound also returned a CC50 at 6 days in series [2] (HepG2.2.15 cells) of 7000 to 50000 nM. Besides, the microsomal CLint at 1 μM in series [3] (human liver microsomes) was determined as 84.4 µL/min/mg; in series [4] (rat liver microsomes) it was 50.8 µL/min/mg. The half-life at 1 μM in series [3] (human liver microsomes) was found to be 16.4 min; in series [4] (rat liver microsomes), 27.3 min.
Consider `CC(=O)SCCOP(=O)(CO[C@H](C)Cn1cnc2c(N)ncnc21)OCOC(=O)OC(C)C` (stereo partly drawn) [Compound T-8, (R)-9-{2-[(acetylsulfanylethyl)(isopropylcarbonatemethyl)phosphorylmethoxy]propyl}adenine], for which the results for the EC50 in the series with HIV-1 and in the series on HBV (setting [7]) were 20 to 100 nM and 200 to 500 nM, respectively. The 50% cytotoxic concentration (CC50) at 5 days in series [1] fell in the range of 10000 to 50000 nM. This compound also gave a CC50 at 6 days in series [2] (HepG2.2.15 cells) above 50000 nM. Moreover, the microsomal CLint at 1 μM in series [3] (human liver microsomes) amounted to 84.1 µL/min/mg; in series [4] (rat liver microsomes) it was 92.7 µL/min/mg. For the same compound, the figures for the half-life at 1 μM in series [3] (human liver microsomes) and in series [4] (rat liver microsomes) were 16.5 min and 14.9 min, respectively.
`CC(C)OC(=O)[C@H](C)N[P@](=O)(CO[C@H](C)Cn1cnc2c(N)ncnc21)Oc1ccccc1` [TAF, Tenofovir Alafenamide Fumarate]: the “concentration of TFV in plasma metabolized by TAF, lower than that of TDF” value in series [5] was 90%. The “concentration of TFV in immune cells metabolized by TAF, higher than that of TDF” value in series [6] was 4 times.
